According to ChEMBL document CHEMBL1142752, “Synthesis and antiviral activities of novel N-alkoxy-arylsulfonamide-based HIV protease inhibitors” (Bioorg Med Chem Lett, 2005):

Target: Human immunodeficiency virus type 1 protease (Human immunodeficiency virus 1, UniProt Q72874)
Assay: Inhibition constant against HIV-1 protease

| Ki [nM] | SMILES |
| --- | --- |
| < 0.005 | COc1ccc(S(=O)(=O)N(CC(O)C(Cc2ccccc2)NC(=O)[C@H](CC(N)=O)NC(=O)c2ccc3ccccc3n2)OC2CCCC2)cc1 (some centres not stated) |
| < 0.005 | O=C(N[C@@H](Cc1ccccc1)[C@H](O)CN(OC1CCCC1)S(=O)(=O)c1ccc(O)cc1)O[C@H]1CO[C@H]2OCC[C@H]21 |
| < 0.005 | Nc1ccc(S(=O)(=O)N(C[C@@H](O)[C@H](Cc2ccccc2)NC(=O)O[C@H]2CO[C@H]3OCC[C@H]32)OC2CCCC2)cc1 |
| < 0.005 | Nc1cccc(S(=O)(=O)N(C[C@@H](O)[C@H](Cc2ccccc2)NC(=O)O[C@H]2CO[C@H]3OCC[C@H]32)OC2CCCC2)c1 |
| < 0.005 | O=C(N[C@@H](Cc1ccccc1)[C@H](O)CN(OC1CCCC1)S(=O)(=O)c1ccc2c(c1)OCO2)O[C@H]1CO[C@H]2OCC[C@H]21 |
| < 0.005 | COc1ccc(S(=O)(=O)N(C[C@@H](O)[C@H](Cc2ccccc2)NC(=O)O[C@@H]2COC3OCCC32)OC2CCCC2)cc1 (some centres not stated) |
| < 0.005 | O=C(N[C@@H](Cc1ccccc1)[C@H](O)CN(OC1CCCCC1)S(=O)(=O)c1ccc(O)cc1)O[C@H]1CO[C@H]2OCC[C@H]21 |
| < 0.005 | O=C(N[C@@H](Cc1ccccc1)[C@H](O)CN(OC1CCCCC1)S(=O)(=O)c1ccc2c(c1)OCCO2)O[C@H]1CO[C@H]2OCC[C@H]21 |
| < 0.005 | COc1ccc(S(=O)(=O)N(C[C@@H](O)[C@H](Cc2ccccc2)NC(=O)O[C@H]2CO[C@H]3OCC[C@H]32)OC2CCCC2)cc1 |
| < 0.005 | O=C(N[C@@H](Cc1ccccc1)[C@H](O)CN(OC1CCCCC1)S(=O)(=O)c1ccc2c(c1)OCO2)O[C@H]1CO[C@H]2OCC[C@H]21 |
| 0.19 | COc1ccc(S(=O)(=O)N(C[C@@H](O)[C@H](Cc2ccccc2)NC(=O)OC2CCOC2)OC2CCCC2)cc1 (some centres not stated) |
| < 0.005 | O=C(N[C@@H](Cc1ccccc1)[C@H](O)CN(OC1CCCC1)S(=O)(=O)c1ccc2c(c1)OCCO2)O[C@H]1CO[C@H]2OCC[C@H]21 |

| SMILES | Ki [nM] |
| --- | --- |
| COc1ccc(S(=O)(=O)N(C[C@@H](O)[C@H](Cc2ccccc2)NC(=O)OC(C)(C)C)OC2CCCCC2)cc1 | 2.8 |
| COc1ccc(S(=O)(=O)N(C[C@@H](O)[C@H](Cc2ccccc2)NC(=O)OC(C)(C)C)Oc2ccccc2)cc1 | 22 |
| COC(=O)N[C@H](C(=O)N[C@@H](Cc1ccccc1)[C@H](O)CN(OC1CCCC1)S(=O)(=O)c1ccc(OC)cc1)C(C)(C)C | 0.09 |
| COc1ccc(S(=O)(=O)N(C[C@@H](O)[C@H](Cc2ccccc2)NC(=O)OC(C)(C)C)OCC(C)C)cc1 | 4 |
| Nc1cccc(S(=O)(=O)N(C[C@@H](O)[C@H](Cc2ccccc2)NC(=O)O[C@H]2CO[C@H]3OCC[C@H]32)OC2CCCCC2)c1 | 0.005 |
| Nc1ccc(S(=O)(=O)N(C[C@@H](O)[C@H](Cc2ccccc2)NC(=O)O[C@H]2CO[C@H]3OCC[C@H]32)OC2CCCCC2)cc1 | 0.018 |
| COc1ccc(S(=O)(=O)N(C[C@@H](O)[C@H](Cc2ccccc2)NC(=O)OC(C)(C)C)OCC2CCCCC2)cc1 | 12 |
| CCC(CC)ON(C[C@@H](O)[C@H](Cc1ccccc1)NC(=O)OC(C)(C)C)S(=O)(=O)c1ccc(OC)cc1 | 3.2 |
| COc1ccc(S(=O)(=O)N(C[C@@H](O)[C@H](Cc2ccccc2)NC(=O)OC(C)(C)C)OC2CCCC2)cc1 | 1.6 |
| COc1ccc(S(=O)(=O)N(C[C@@H](O)[C@H](Cc2ccccc2)NC(=O)OC(C)(C)C)OC(C)C)cc1 [ENTRY A] | 14 |
